Data on 17 molecules can be found in PubChem BioAssay AID624167 (Sanford-Burnham Center for Chemical Genomics, 2012).

Active and inactive are the calls of the source.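 Rule for the calls: active = mean IC50 for reducing PEG3 promoter reporter signal at or below a set limit, with IC50 above the limit in both counter screens; inactive = the rest, including counter screen hits.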

Assay in all cases: inhibition of PEG-3 promoter-driven reporter – cell-based, HeLa, luciferase, CREF/GAPDH counter-screen panel, dose response (AID 624167)
Experiment [1] deals with PEG-3 (UniProt Q6IN02). The settings on record: HeLa PEG-Prom luciferase reporter, overnight, CREF/GAPDH counter-screens, mean of runs.
Experiment [2] has as its system Rat fibroblasts (CREF). The settings on record: CREF/GAPDH counter-screens.
For experiment [3], the system named is PEG-3. Conditions: HeLa PEG-Prom luciferase reporter, overnight, CREF/GAPDH counter-screens.
Where [4] appears, read: run 1, dose range 1, individual replicate IC50 per panel.
Where [5] appears, read: run 2, dose range 1, individual replicate IC50 per panel.

PEG-3 (UniProt Q6IN02), sequence (Q6IN02 whole entry, looked up): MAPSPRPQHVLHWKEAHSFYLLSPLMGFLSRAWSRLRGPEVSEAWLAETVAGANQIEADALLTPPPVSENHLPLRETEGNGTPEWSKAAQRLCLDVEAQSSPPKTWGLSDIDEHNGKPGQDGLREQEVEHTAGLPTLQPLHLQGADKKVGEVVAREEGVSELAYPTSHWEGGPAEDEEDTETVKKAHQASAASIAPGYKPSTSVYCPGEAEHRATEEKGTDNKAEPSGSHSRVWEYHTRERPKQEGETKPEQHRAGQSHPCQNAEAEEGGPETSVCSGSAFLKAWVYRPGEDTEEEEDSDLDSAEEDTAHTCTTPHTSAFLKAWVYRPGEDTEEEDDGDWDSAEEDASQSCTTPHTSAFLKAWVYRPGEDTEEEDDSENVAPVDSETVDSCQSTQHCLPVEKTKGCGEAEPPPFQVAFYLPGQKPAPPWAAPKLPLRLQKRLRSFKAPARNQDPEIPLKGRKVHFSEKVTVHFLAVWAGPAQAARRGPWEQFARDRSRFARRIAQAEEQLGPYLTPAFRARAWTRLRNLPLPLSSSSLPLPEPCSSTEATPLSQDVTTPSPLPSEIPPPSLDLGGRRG

`COc1ccc(C(=O)CN2C(=O)c3ccccc3S2(=O)=O)cc1`: the IC50 in experiment [1] was 3.28 µM; in experiment [2] (mean of runs), 3.15 µM; in experiment [2] (setting [4]) it was 3.25 µM; in experiment [2] (setting [5]), 3.04 µM; in experiment [3] (setting [4]) it was 2.96 µM; in experiment [3] (setting [5]) it was 3.59 µM.

With `COc1ccc(-c2nc(-c3ccccn3)no2)cc1`, the IC50 is 0.552 µM in experiment [1]; 0.529 µM in experiment [2] (mean of runs); 0.472 µM in experiment [2] (setting [4]); 0.586 µM in experiment [2] (setting [5]); 0.765 µM in experiment [3] (setting [4]); 0.338 µM in experiment [3] (setting [5]).

Regarding `COC(=O)c1c(N)sc(C(=O)NCCc2ccccc2)c1C`, the IC50 is 2.46 µM in experiment [1]; 3.88 µM in experiment [2] (mean of runs); 4.38 µM in experiment [2] (setting [4]); 3.38 µM in experiment [2] (setting [5]); 2.22 µM in experiment [3] (setting [4]); 2.69 µM in experiment [3] (setting [5]).

As for `COc1cccc(NC(=O)c2nc(S(C)(=O)=O)ncc2Cl)c1`, the IC50 was 7.74 µM in experiment [1]; 9.29 µM in experiment [2] (mean of runs); 10.2 µM in experiment [2] (setting [4]); 8.36 µM in experiment [2] (setting [5]); 8.84 µM in experiment [3] (setting [4]); 6.64 µM in experiment [3] (setting [5]).

On to `Cc1csc(NC(=O)c2ccc(N3CCCC3=O)cc2)n1`, for which the IC50 in experiment [1] is 5.93 µM; in experiment [2] (mean of runs), 4.51 µM; in experiment [2] (setting [4]), 2.85 µM; in experiment [2] (setting [5]) it was 6.17 µM; in experiment [3] (setting [4]), 5.34 µM; in experiment [3] (setting [5]), 6.53 µM.

For the molecule `O=C(NCCc1ccccc1)c1ccc2c(c1)OCCO2`, the IC50 was 0.636 µM in experiment [1]; 1.73 µM in experiment [2] (mean of runs); 1.36 µM in experiment [2] (setting [4]); 2.1 µM in experiment [2] (setting [5]); 0.646 µM in experiment [3] (setting [4]); 0.625 µM in experiment [3] (setting [5]).

On to `CC(=O)n1cc(N(C(=O)CCl)c2ccc(C)cc2)c2ccccc21`, for which the IC50 is 9.36 µM in experiment [1]; 3.96 µM in experiment [2] (mean of runs); 5.38 µM in experiment [2] (setting [4]); 2.53 µM in experiment [2] (setting [5]); 11.3 µM in experiment [3] (setting [4]); 7.38 µM in experiment [3] (setting [5]).

For `CCCS(=O)(=O)c1cnc(C2COc3ccccc3O2)nc1N` (configuration not stated), the IC50 in experiment [1] was 3.78 µM; in experiment [2] (mean of runs), 10.8 µM; in experiment [2] (setting [4]) it was 9.07 µM; in experiment [2] (setting [5]), 12.5 µM; in experiment [3] (setting [4]), 2.52 µM; in experiment [3] (setting [5]), 5.04 µM.

In the case of `NC1=C(Br)C(=O)c2ncccc2C1=O`, the IC50 in experiment [1] was 3.1 µM; in experiment [2] (mean of runs) it was 2.2 µM; in experiment [2] (setting [4]), 2.19 µM; in experiment [2] (setting [5]), 2.2 µM; in experiment [3] (setting [4]), 3.31 µM; in experiment [3] (setting [5]) it was 2.9 µM.

Consider `O=C(Nc1cccc(C(=O)O)c1)Nc1ccc2c(c1)OCO2`, for which the IC50 in experiment [1] is 8.34 µM; in experiment [2] (mean of runs), 17.4 µM; in experiment [2] (setting [4]) it was 14.2 µM; in experiment [2] (setting [5]) it was 20.7 µM; in experiment [3] (setting [4]), 3.5 µM; in experiment [3] (setting [5]), 13.2 µM.

In the case of `CCOc1ccc(-c2ccc(SC)nn2)cc1`, the IC50 in experiment [1] is 4.15 µM; in experiment [2] (mean of runs), 0.473 µM; in experiment [2] (setting [4]) it was 0.313 µM; in experiment [2] (setting [5]) it was 0.632 µM; in experiment [3] (setting [4]), 2.87 µM; in experiment [3] (setting [5]), 5.43 µM.

`Cc1cc(C(=O)CN2C(=O)c3ccccc3S2(=O)=O)c(C)n1CC1CCCO1` (configuration not stated): the IC50 is 0.568 µM in experiment [1]; 3.91 µM in experiment [2] (mean of runs); 1.95 µM in experiment [2] (setting [4]); 5.86 µM in experiment [2] (setting [5]); 0.76 µM in experiment [3] (setting [4]); 0.375 µM in experiment [3] (setting [5]).

Turning to `c1ccc(-c2nc(-c3ccccn3)no2)cc1`, in experiment [1], the IC50 entry is “inactive”. Moreover, the IC50 was 2.98 µM in experiment [2] (mean of runs); 3.18 µM in experiment [2] (setting [4]); 2.79 µM in experiment [2] (setting [5]); 6.25 µM in experiment [3] (setting [4]); over 100 µM in experiment [3] (setting [5]).

Regarding `COc1ccc(OCc2cccc(C(=O)O)c2)cc1`, the IC50 in experiment [1] is 0.327 µM; in experiment [2] (mean of runs) it was 10.5 µM; in experiment [2] (setting [4]), 10.2 µM; in experiment [2] (setting [5]) it was 10.8 µM; in experiment [3] (setting [4]), 0.263 µM; in experiment [3] (setting [5]), 0.39 µM.

For `COc1cc(SC)ccc1C(=O)Nc1nc(C)cs1`, the IC50 is 2.11 µM in experiment [1]; 0.516 µM in experiment [2] (mean of runs); 0.542 µM in experiment [2] (setting [4]); 0.49 µM in experiment [2] (setting [5]); 1.69 µM in experiment [3] (setting [4]); 2.52 µM in experiment [3] (setting [5]).

For `O=C(NCCc1ccccc1)c1ccc2c(c1)OCCCO2`, the IC50 in experiment [1] was 0.557 µM; in experiment [2] (mean of runs) it was 0.589 µM; in experiment [2] (setting [4]), 0.374 µM; in experiment [2] (setting [5]), 0.803 µM; in experiment [3] (setting [4]) it was 0.466 µM; in experiment [3] (setting [5]), 0.647 µM.

On to `C=CCn1c(C)cc(C2=NNC(=NCC)SC2)c1C`, for which the IC50 in experiment [1] was 2.37 µM; in experiment [2] (mean of runs), 1.72 µM; in experiment [2] (setting [4]), 1.49 µM; in experiment [2] (setting [5]), 1.95 µM; in experiment [3] (setting [4]), 3.02 µM; in experiment [3] (setting [5]), 1.72 µM.
